Experimental findings from patent publication US9012642B2, “Pyrrolopyridinone compounds and methods for treating HIV” (ViiV Healthcare UK Limited, priority 2011, dated 2015) are described below.

Each structure is given as a SMILES string. Read-outs that look alike come from different tables or passages of the source.

The test has as its system HIV. Kind of test: HIV MT4 Assay (antiviral HIV activity in MT-4 cells). The test is classed as cell-based. The procedure:
Antiviral HIV activity and cytotoxicity values for compounds of the invention from Table 1 were measured in parallel in the HTLV-1 transformed cell line MT-4 based on the method previously described (Hazen et al., 2007, In vitro antiviral activity of the novel, tyrosyl-based human immunodeficiency virus (HIV) type 1 protease inhibitor brecanavir (GW640385) in combination with other antiretrovirals and against a panel of protease inhibitor-resistant HIV (Hazen et al., “In vitro antiviral activity of the novel, tyrosyl-based human immunodeficiency virus (HIV) type 1 protease inhibitor brecanavir (GW640385) in combination with other antiretrovirals and against a panel of protease inhibitor-resistant HIV”, Antimicrob. Agents Chemother. 2007, 51: 3147-3154; and Pauwels et al., “Sensitive and rapid assay on MT-4 cells for the detection of antiviral compounds against the AIDS virus”, (J. of Virological Methods 1987, 16: 171-185).
Luciferase activity was measured 96 hours later by adding a cell titer glo (Promega, Madison, Wis.). Percent inhibition of cell protection data was plotted relative to no compound control. Under the same condition, cytotoxicity of the compounds was determined using cell titer Glo™ (Promega, Madison, Wis.). IC50s were determined from a 10 point dose response curve using 3-4-fold serial dilution for each compound, which spans a concentration range >1000 fold.
These values are plotted against the molar compound concentrations using the standard four parameter logistic equation: y=((Vmax*x^n)/(K^n+x^n))+Y^2
Y^2=minimum y n=slope factor
Vmax=maximum y x=compound concentration [M]

Setting [1] is: Human immunodeficiency virus 1, MT4, HTLV-1 transformed cell line MT-4, luciferase activity measured 96 hours later, Table 3, read-out: HIV MT4 Assay IC50.
Where [2] appears, read: MT4, 96 h, read-out: MT4 (IC50).

One may read the IC50 as the midpoint of a concentration-inhibition curve. Regarding `Cc1ccc(-c2c(C(OC(C)(C)C)C(=O)O)n(C)c(=O)c3c2ccn3Cc2ccc(C(N)=O)cc2)cc1` (stereo not shown) [Example 22, 2-(tert-butoxy)-2-(1-(4-carbamoylbenzyl)-6-methyl-7-oxo-4-(p-tolyl)-6,7-dihydro-1H-pyrrolo[2,3-c]pyridin-5-yl)acetic acid], the IC50 reads like this: under setting [1], 8.7 µM; under setting [2], 8.7 µM.
With `Cc1ccc(-c2c(C(OC(C)(C)C)C(=O)O)n(C)c(=O)c3c2ccn3Cc2ccc(SC(F)(F)F)cc2)cc1` (stereo not shown) [Example 23, 2-(tert-butoxy)-2-(6-methyl-7-oxo-4-(p-tolyl)-1-(4-((trifluoromethyl)thio)benzyl)-6,7-dihydro-1H-pyrrolo[2,3-c]pyridin-5-yl)acetic acid], the IC50 reads like this: under setting [1], 1.5 µM; under setting [2], 1.5 µM.
In the case of `Cc1ccc(-c2c([C@H](OC(C)(C)C)C(=O)O)n(C)c(=O)c3c2ccn3Cc2ccc(F)cc2)cc1` [Example 24, (S)-2-(tert-butoxy)-2-(1-(4-fluorobenzyl)-6-methyl-7-oxo-4-(p-tolyl)-6,7-dihydro-1H-pyrrolo[2,3-c]pyridin-5-yl)acetic acid], the IC50 under setting [1] stood at 0.04 µM and the IC50 under setting [2] is 0.04 µM.
Regarding `Cc1ccc(-c2c(C(OC(C)(C)C)C(=O)O)n(C)c(=O)c3c2ccn3Cc2cccs2)cc1` (stereo not shown) [Example 25, 2-(tert-butoxy)-2-(6-methyl-7-oxo-1-(thiophen-2-ylmethyl)-4-(p-tolyl)-6,7-dihydro-1H-pyrrolo[2,3-c]pyridin-5-yl)acetic acid], the IC50 by setting is: under setting [1], 0.22 µM; under setting [2], 0.22 µM.
As for `Cc1ccc(-c2c(C(OC(C)(C)C)C(=O)O)n(C)c(=O)c3c2ccn3CCc2ccc(F)cc2)cc1` (stereo not shown) [Example 26, 2-(tert-butoxy)-2-(1-(4-fluorophenethyl)-6-methyl-7-oxo-4-(p-tolyl)-6,7-dihydro-1H-pyrrolo[2,3-c]pyridin-5-yl)acetic acid], the IC50 is, setting by setting: under setting [1], 2.25 µM; under setting [2], 2.25 µM.
As for `Cc1ccc(-c2c(C(OC(C)(C)C)C(=O)O)n(C)c(=O)c3c2ccn3Cc2ccc(S(C)(=O)=O)cc2)cc1` (stereo not shown) [Example 27, 2-(tert-butoxy)-2-(6-methyl-1-(4-(methylsulfonyl)benzyl)-7-oxo-4-(p-tolyl)-6,7-dihydro-1H-pyrrolo[2,3-c]pyridin-5-yl)acetic acid], the IC50 stood at 3.85 µM under setting [1] and 3.85 µM under setting [2].
Turning to `Cc1ccc(-c2c(C(OC(C)(C)C)C(=O)O)n(C)c(=O)c3c2ccn3Cc2ccc(F)c(F)c2)cc1` (stereo not shown) [Example 28, 2-(tert-butoxy)-2-(1-(3,4-difluorobenzyl)-6-methyl-7-oxo-4-(p-tolyl)-6,7-dihydro-1H-pyrrolo[2,3-c]pyridin-5-yl)acetic acid], the IC50 under setting [1] was 0.08 µM and the IC50 under setting [2] worked out at 0.08 µM.
With `COc1ccc(Cn2ccc3c(-c4ccc(C)cc4)c(C(OC(C)(C)C)C(=O)O)n(C)c(=O)c32)cc1` (stereo not shown) [Example 29, 2-(tert-butoxy)-2-(1-(4-methoxybenzyl)-6-methyl-7-oxo-4-(p-tolyl)-6,7-dihydro-1H-pyrrolo[2,3-c]pyridin-5-yl)acetic acid], the IC50 amounted to 0.17 µM under setting [1] and 0.17 µM under setting [2].
Regarding `Cc1ccc(-c2c(C(OC(C)(C)C)C(=O)O)n(C)c(=O)c3c2ccn3C)cc1` (stereo not shown) [Example 30, 2-(tert-butoxy)-2-(1,6-dimethyl-7-oxo-4-(p-tolyl)-6,7-dihydro-1H-pyrrolo[2,3-c]pyridin-5-yl)acetic acid], the IC50 is 1.1 µM under setting [1] and 1.1 µM under setting [2].
For `Cc1ccc(-c2c(C(OC(C)(C)C)C(=O)O)n(C)c(=O)c3c2ccn3Cc2ccc(Cl)c(F)c2)cc1` (stereo not shown) [Example 31, 2-(tert-butoxy)-2-(1-(4-chloro-3-fluorobenzyl)-6-methyl-7-oxo-4-(p-tolyl)-6,7-dihydro-1H-pyrrolo[2,3-c]pyridin-5-yl)acetic acid], the IC50 amounted to 0.11 µM under setting [1] and 0.11 µM under setting [2].
For `Cc1ccc(-c2c(C(OC(C)(C)C)C(=O)O)n(C)c(=O)c3c2ccn3Cc2cc(F)c(F)c(F)c2)cc1` (stereo not shown) [Example 32, 2-(tert-butoxy)-2-(6-methyl-7-oxo-4-(p-tolyl)-1-(3,4,5-trifluorobenzyl)-6,7-dihydro-1H-pyrrolo[2,3-c]pyridin-5-yl)acetic acid], the IC50 came out at 0.08 µM under setting [1] and 0.08 µM under setting [2].
As to `Cc1ccc(-c2c(C(OC(C)(C)C)C(=O)O)n(C)c(=O)c3c2ccn3Cc2ccc3c(c2)OCO3)cc1` (stereo not shown) [Example 33, 2-(1-(benzo[d][1,3]dioxol-5-ylmethyl)-6-methyl-7-oxo-4-(p-tolyl)-6,7-dihydro-1H-pyrrolo[2,3-c]pyridin-5-yl)-2-(tert-butoxy)acetic acid], the IC50 came to 0.21 µM under setting [1] and 0.21 µM under setting [2].
Regarding `Cc1ccc(-c2c(C(OC(C)(C)C)C(=O)O)n(C)c(=O)c3c2ccn3-c2ccc(F)cc2)cc1` (stereo not shown) [Example 34, 2-(tert-butoxy)-2-(1-(4-fluorophenyl)-6-methyl-7-oxo-4-(p-tolyl)-6,7-dihydro-1H-pyrrolo[2,3-c]pyridin-5-yl)acetic acid], the IC50 under setting [1] turned out to be 0.77 µM and the IC50 under setting [2] came out at 0.77 µM.
As for `Cc1ccc(-c2c(C(OC(C)(C)C)C(=O)O)n(C)c(=O)c3c2ccn3CC(=O)Nc2ccc(F)cc2)cc1` (stereo not shown) [Example 35, 2-(tert-butoxy)-2-(1-(2-((4-fluorophenyl)amino)-2-oxoethyl)-6-methyl-7-oxo-4-(p-tolyl)-6,7-dihydro-1H-pyrrolo[2,3-c]pyridin-5-yl)acetic acid], the IC50 under setting [1] was 1 µM and the IC50 under setting [2] came to 1 µM.
For `COc1ccc(-c2c(C(OC(C)(C)C)C(=O)O)n(C)c(=O)c3c2ccn3Cc2ccc(F)cc2)cc1` (stereo not shown) [Example 36, 2-(tert-butoxy)-2-(1-(4-fluorobenzyl)-4-(4-methoxyphenyl)-6-methyl-7-oxo-6,7-dihydro-1H-pyrrolo[2,3-c]pyridin-5-yl)acetic acid], the IC50 was determined as 0.06 µM under setting [1] and 0.06 µM under setting [2].
For `Cn1c(C(OC(C)(C)C)C(=O)O)c(-c2ccc(F)cc2)c2ccn(Cc3ccc(F)cc3)c2c1=O` (stereo not shown) [Example 37, 2-(tert-butoxy)-2-(1-(4-fluorobenzyl)-4-(4-fluorophenyl)-6-methyl-7-oxo-6,7-dihydro-1H-pyrrolo[2,3-c]pyridin-5-yl)acetic acid], the IC50 came to 0.67 µM under setting [1] and 0.67 µM under setting [2].
Regarding `Cc1c(-c2c(C(OC(C)(C)C)C(=O)O)n(C)c(=O)c3c2ccn3Cc2ccccc2)ccc2c1CCCO2` (stereo not shown) [Example 38, 2-(1-benzyl-6-methyl-4-(5-methylchroman-6-yl)-7-oxo-6,7-dihydro-1H-pyrrolo[2,3-c]pyridin-5-yl)-2-(tert-butoxy)acetic acid], the IC50 under setting [1] turned out to be 0.07 µM and the IC50 under setting [2] came out at 0.07 µM.
As for `Cc1c(-c2c(C(OC(C)(C)C)C(=O)O)n(C)c(=O)c3c2ccn3C)ccc2c1CCCO2` (stereo not shown) [Example 40, 2-(tert-butoxy)-2-(1,6-dimethyl-4-(5-methylchroman-6-yl)-7-oxo-6,7-dihydro-1H-pyrrolo[2,3-c]pyridin-5-yl)acetic acid], the concentration for half-maximal inhibition (IC50) turned out to be 0.5 µM under setting [1] and 0.5 µM under setting [2].
In the case of `Cc1c(-c2c(C(OC(C)(C)C)C(=O)O)n(C)c(=O)c3c2ccn3Cc2ccccn2)ccc2c1CCCO2` (stereo not shown) [Example 42, 2-(tert-butoxy)-2-(6-methyl-4-(5-methylchroman-6-yl)-7-oxo-1-(pyridin-2-ylmethyl)-6,7-dihydro-1H-pyrrolo[2,3-c]pyridin-5-yl)acetic acid], the IC50 under setting [1] was 0.54 µM and the IC50 under setting [2] turned out to be 0.54 µM.
Regarding `COCCn1ccc2c(-c3ccc4c(c3C)CCCO4)c(C(OC(C)(C)C)C(=O)O)n(C)c(=O)c21` (stereo not shown) [Example 43, 2-(tert-butoxy)-2-(1-(2-methoxyethyl)-6-methyl-4-(5-methylchroman-6-yl)-7-oxo-6,7-dihydro-1H-pyrrolo[2,3-c]pyridin-5-yl)acetic acid], the IC50 under setting [1] came out at 1.1 µM and the half-maximal inhibitory concentration (IC50) under setting [2] came to 1.1 µM.
Consider `Cc1c(-c2c(C(OC(C)(C)C)C(=O)O)n(C)c(=O)c3c2ccn3Cc2ccc(Cl)cc2)ccc2c1CCCO2` (stereo not shown) [Example 44, 2-(tert-butoxy)-2-(1-(4-chlorobenzyl)-6-methyl-4-(5-methylchroman-6-yl)-7-oxo-6,7-dihydro-1H-pyrrolo[2,3-c]pyridin-5-yl)acetic acid], for which the IC50 amounted to 0.05 µM under setting [1] and 0.05 µM under setting [2].
In the case of `Cc1c(-c2c(C(OC(C)(C)C)C(=O)O)n(C)c(=O)c3c2ccn3Cc2cccc(F)c2)ccc2c1CCCO2` (stereo not shown) [Example 45, 2-(tert-butoxy)-2-(1-(3-fluorobenzyl)-6-methyl-4-(5-methylchroman-6-yl)-7-oxo-6,7-dihydro-1H-pyrrolo[2,3-c]pyridin-5-yl)acetic acid], the IC50 runs as follows: under setting [1], 0.08 µM; under setting [2], 0.08 µM.
Consider `Cc1c(-c2c(C(OC(C)(C)C)C(=O)O)n(C)c(=O)c3c2ccn3Cc2ccc(C(F)(F)F)cc2)ccc2c1CCCO2` (stereo not shown) [Example 46, 2-(tert-butoxy)-2-(6-methyl-4-(5-methylchroman-6-yl)-7-oxo-1-(4-(trifluoromethyl)benzyl)-6,7-dihydro-1H-pyrrolo[2,3-c]pyridin-5-yl)acetic acid], for which the IC50 by setting is: under setting [1], 0.09 µM; under setting [2], 0.09 µM.
